1 compound from patent publication US20070142270A1, “Aryl Sulfonic Pyridoxines as Antiplatelet Agents” (priority 2004, published 2007) can be followed below.

Read-outs that look alike come from different tables or passages of the source.

One may read the IC50 as the point on the concentration scale where inhibition reaches its midpoint. A high value points to a need for much substance.

The subject of assay [1] is platelets (platelet rich plasma). The assay can be described thus: Inhibition of platelet aggregation in platelet rich plasma (Chrono-log aggregometer). The following applies: agonist collagen 1 μg/mL, compound concentration 500 μM, human PRP, read-out: % Reduction in Aggregation, Collagen (1 μg/mL). It counts as cell-based. As to the method: Platelet poor plasma (PPP) was obtained by centrifuging the remainder of the sample after the platelets were removed at 800×g for about 10 minutes. The PRP was adjusted to a count of 280×10^9/L using a mixture of PRP and PPP. The platelets (200 μL) were incubated with the test compounds (25 μL) adjusted to various concentrations ([…]) for about 30 minutes at room temperature (approximate final platelet count in the incubation mixture of 250×10^9/L). The samples were incubated for about 3 minutes at about 37° C., and then transferred to the mixing wells of a Chrono-log 4 channel aggregometer (Chrono-log Corp., Havertown, Pa.). After baselines were established, the agonist (25 μL of 40 μM ADP (Sigma, St. Louis, Mo.) or 25 μL of 50 μg/mL and 10 μg/mL collagen (Helena Laboratories, Beaumont, Tex.) or 25 μL of 120 μM thrombin receptor activating peptide (TRAP) (Sigma)) was then added. Aggregation was monitored for 5 minutes at 37° C. with stirring (1000 rpm). The amplitude and slope of each tracing were calculated to determine the amount of aggregation. Control samples were performed using only solvent. The % reduction in aggregation was calculated for each sample compared to the proper solvent control.

Assay [2] has as its target T1, human Factor Xa (fXa) (Homo sapiens, UniProt P00742).
T1 construct: purchased Haematologic Technologies Inc. (Essex Junction, Vt.)
The assay can be described thus: Inhibition of serine protease activity, factor Xa, chromogenic substrate Pefachrome Xa. Format: biochemical. The following applies: 2 nM human Factor Xa, 300 μM substrate, pH 7.5. As to the method:
(§1) The enzymes factor Xa (fXa), thrombin (factor IIa or fIIa), and trypsin were purchased from Haematologic Technologies Inc. (Essex Junction, Vt.). The substrates Pefachromes Xa, Th, and Try were purchased from Centerchem Inc. (Stamford, Conn.). Varying concentrations of the sulfonamide compounds were incubated for 30 min at room temperature with purified activated human enzyme in the appropriate buffer. Various concentrations of the corresponding synthetic substrate were added, and activity was measured at 37° C. by monitoring absorbance at 405 nm for 15 min with a Flurostar Optima plate reader. […] For controls, the appropriate percentage of solvent was used instead of test compound. The specific activity (ΔA405/min/nM protein), and the percent activity was calculated for each data point. The IC50 was calculated by linear regression of log[test compound] vs. % activity. The enzyme activity of the sulfonamide compound was determined using the Enzyme Kinetics Module of Sigmaplot 8.0 (SPSS Inc.)
The final concentration of human Factor Xa was 2 nM in a Tris/NaCl buffer (pH 7.5) containing 0.25% (w/v) polyethylene glycol (MW 8000). The substrate employed was Pefachrome Xa.

Assay [3] deals with platelets (platelet rich plasma). The assay can be described thus: Inhibition of platelet aggregation in platelet rich plasma (Chrono-log aggregometer). Format: cell-based. The following applies: compound concentration 500 μM, human PRP.
Assay [4] deals with T2, human thrombin (factor IIa, fIIa) (Homo sapiens, UniProt P00734).
T2 construct: purchased Haematologic Technologies Inc. (Essex Junction, Vt.)
The assay can be described thus: Inhibition of serine protease activity, thrombin, chromogenic substrate Pefachrome Th. Format: biochemical. As to conditions: 2 nM human thrombin, 300 μM substrate, pH 8.3. As to the method: as §1
The final concentration of human thrombin was 2 nM in a Tris/NaCl buffer (pH 8.3) containing 0.125% (w/v) bovine serum albumin. The substrate used was Pefachrome Th.

Assay [5] deals with human trypsin. The assay can be described thus: Inhibition of serine protease activity, trypsin, chromogenic substrate Pefachrome Try. Format: biochemical. The following applies: 2 nM human trypsin, 300 μM substrate, pH 7.5. As to the method: as §1
The final concentration of human trypsin was 2 nM in a Tris/NaCl buffer (pH 7.5) containing 0.25% (w/v) bovine serum albumin and 20 μM CaCl2. The substrate used was Pefachrome Try.

T1 sequence (P00742 235-488 limits assumed): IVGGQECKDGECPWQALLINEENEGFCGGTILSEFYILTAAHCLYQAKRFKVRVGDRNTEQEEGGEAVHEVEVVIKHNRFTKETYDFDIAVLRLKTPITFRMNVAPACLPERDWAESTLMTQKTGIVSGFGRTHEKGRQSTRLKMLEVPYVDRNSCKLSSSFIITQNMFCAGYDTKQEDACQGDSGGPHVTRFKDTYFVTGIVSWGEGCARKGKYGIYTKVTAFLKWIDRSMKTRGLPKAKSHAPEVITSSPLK
T1 sequence (P00742 41-179 partner limits assumed): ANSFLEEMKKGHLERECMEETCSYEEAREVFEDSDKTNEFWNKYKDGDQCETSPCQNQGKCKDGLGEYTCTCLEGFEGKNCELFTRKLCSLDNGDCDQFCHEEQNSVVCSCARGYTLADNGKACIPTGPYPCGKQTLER

Regarding `Cc1ncc(CNc2ccc(C(=N)N)cc2)c(CO)c1O` [Compound 33, reference compound], the inhibition at 500 µM in assay [1] came out at 5%; in assay [3] (agonist ADP 4 μM, read-out: % Reduction in Aggregation, ADP (4 μM)) it was 4%; in assay [3] (agonist TRAP 12 μM, read-out: % Reduction in Aggregation, TRAP (12 μM)), 1%; in assay [3] (agonist collagen 5 μg/mL, read-out: % Reduction in Aggregation, Collagen (5 μg/mL)), 15%. Moreover, the IC50 in assay [2] was 105 µM; in assay [4] it was 300 µM; in assay [5] it was 18 µM.
